Assays:
Format in all cases: in vivo
Ceratitis capitata = assay: Mediterranean fruitfly microtiter plate diet test, egg and larval mortality; conditions: 120 h, 5 days, in comparison with untreated controls
Method: B.5 Mediterranean Fruitfly (Ceratitis capitata)
For evaluating control of Mediterranean fruitfly (Ceratitis capitata) the test unit consisted of microtiter plates containing an insect diet and 50-80 C. capitata eggs.
The compounds were formulated using a solution containing 75% v/v water and 25% v/v DMSO. Different concentrations of formulated compounds were sprayed onto the insect diet at 5 μl, using a custom built micro atomizer, at two replications.
(§1) After application, microtiter plates were incubated at about 28±1° C. and about 80±5% relative humidity for 5 days. Egg and larval mortality was then visually assessed.

Spodoptera eridania = assay: Southern armyworm spray test on lima bean plants; conditions: 96 h, 4 days after treatment, in comparison with untreated controls
Method: B.9 Southern Armyworm (Spodoptera eridania)
(§2) The active compounds were formulated in cyclohexanone as a 10,000 ppm solution supplied in tubes. The tubes were inserted into an automated electrostatic sprayer equipped with an atomizing nozzle and they served as stock solutions for which lower dilutions were made in 50% acetone:50% water (v/v). A nonionic surfactant (Kinetic®) was included in the solution at a volume of 0.01% (v/v).
Lima bean plants (variety Sieva) were grown 2 plants to a pot and selected for treatment at the 1st true leaf stage. Test solutions were sprayed onto the foliage by an automated electrostatic plant sprayer equipped with an atomizing spray nozzle. The plants were dried in the sprayer fume hood and then removed from the sprayer. Each pot was placed into perforated plastic bags with a zip closure. About 10 to 11 armyworm larvae were placed into the bag and the bags zipped closed. Test plants were maintained in a growth room at about 25° C. and about 20-40% relative humidity for 4 days, avoiding direct exposure to fluorescent light (24 hour photoperiod) to prevent trapping of heat inside the bags. Mortality and reduced feeding were assessed 4 days after treatment, compared to untreated control plants.

Dichromothrips corbetti = assay: Orchid thrips floral-immersion test; conditions: 96 h, after 4 days, in comparison with untreated controls
Method: B.6 Orchid Thrips (Dichromothrips corbetti)
Dichromothrips corbetti adults used for bioassay were obtained from a colony maintained continuously under laboratory conditions. For testing purposes, the test compound was diluted to a concentration of 500 ppm (wt compound: vol diluent) in a 1:1 mixture of acetone:water (vol:vol), plus 0.01% vol/vol Kinetic® surfactant.
Thrips potency of each compound was evaluated by using a floral-immersion technique. Plastic petri dishes were used as test arenas. All petals of individual, intact orchid flowers were dipped into treatment solution and allowed to dry. Treated flowers were placed into individual petri dishes along with 10-15 adult thrips. The petri dishes were then covered with lids. All test arenas were held under continuous light and a temperature of about 28° C. for duration of the assay. After 4 days, the numbers of live thrips were counted on each flower, and along inner walls of each petri dish. The level of thrips mortality was extrapolated from pre-treatment thrips numbers.

Megoura viciae = assay: Vetch aphid leaf disk test in 24-well plates; conditions: foliar, 120 h, 5 days, in comparison with untreated controls
Method: B.10 Vetch Aphid (Megoura viciae)
For evaluating control of vetch aphid (Megoura viciae) through contact or systemic means the test unit consisted of 24-well-microtiter plates containing broad bean leaf disks.
The compounds were formulated using a solution containing 75% v/v water and 25% v/v DMSO. Different concentrations of formulated compounds were sprayed onto the leaf disks at 2.5 μl, using a custom built micro atomizer, at two replications.
After application, the leaf disks were air-dried and 5-8 adult aphids placed on the leaf disks inside the microtiter plate wells. The aphids were then allowed to suck on the treated leaf disks and incubated at about 23±1° C. and about 50±5% relative humidity for 5 days. Aphid mortality and fecundity was then visually assessed.

Myzus persicae = assay: Green peach aphid systemic test, artificial diet in 96-well plates; conditions: 72 h, 3 days, in comparison with untreated controls
Text: B.4 Green Peach Aphid (Myzus persicae)
For evaluating control of green peach aphid (Myzus persicae) through systemic means the test unit consisted of 96-well-microtiter plates containing liquid artificial diet under an artificial membrane.
The compounds were formulated using a solution containing 75% v/v water and 25% v/v DMSO. Different concentrations of formulated compounds were pipetted into the aphid diet, using a custom built pipetter, at two replications.
After application, 5-8 adult aphids were placed on the artificial membrane inside the microtiter plate wells. The aphids were then allowed to suck on the treated aphid diet and incubated at about 23±1° C. and about 50±5% relative humidity for 3 days. Aphid mortality and fecundity was then visually assessed.

Plutella xylostella = assay: Diamond back moth leaf dip test; conditions: foliar, recorded 24, 72 and 120 hours after treatment, in comparison with untreated controls
Method: B.3 Diamond Back Moth (Plutella xylostella)
Leaves of Chinese cabbage were dipped in test solution and air-dried. Treated leaves were placed in petri dished lined with moist filter paper. Mortality was recorded 24, 72, and 120 hours after treatment.

Heliothis virescens = assay: Tobacco budworm microtiter plate diet test, egg and larval mortality; conditions: 120 h, 5 days, in comparison with untreated controls
Method: B.11 Tobacco Budworm (Heliothis virescens) I
For evaluating control of tobacco budworm (Heliothis virescens) the test unit consisted of 96-well-microtiter plates containing an insect diet and 15-25 H. virescens eggs. The compounds were formulated using a solution containing 75% v/v water and 25% v/v DMSO. Different concentrations of formulated compounds were sprayed onto the insect diet at 10 μl, using a custom built micro atomizer, at two replications.
as §1

Anthonomus grandis = assay: Boll weevil microtiter plate diet test, egg and larval mortality; conditions: 120 h, 5 days, in comparison with untreated controls
Method: B.12 Boll Weevil (Anthonomus grandis)
For evaluating control of boll weevil (Anthonomusgrandis) the test unit consisted of 24-well-microtiter plates containing an insect diet and 20-30 A. grandis eggs.
The compounds were formulated using a solution containing 75% v/v water and 25% v/v DMSO. Different concentrations of formulated compounds were sprayed onto the insect diet at 20 μl, using a custom built micro atomizer, at two replications.
After application, microtiter plates were incubated at about 23±1° C. and about 50±5% relative humidity for 5 days. Egg and larval mortality was then visually assessed.

Tetranychus kanzawai = assay: Red spider mite spray test on cowpea beans; conditions: after 72 h, in comparison with untreated controls
Method: B.14 Red Spider Mite (Tetranychus kanzawai)
The active compound was dissolved at the desired concentration in a mixture of 1:1 (v/v) distilled water:acetone. A surfactant (Alkamuls® EL 620) was added at the rate of 0.1% (v/v).
Potted cowpea beans of 7-10 days of age were cleaned with tap water and sprayed with 5 ml of the test solution using air driven hand atomizer. The treated plants were allowed to air dry and afterwards inculated with 20 or more mites by clipping a cassava leaf section with known mite population. Treated plants were placed inside a holding room at about 25-27° C. and about 50-60% relatice humidity.
Mortality was determined by counting the live mites 72 HAT. Percent mortality was assessed after 72 h.

Aphis craccivora = assay: Cowpea aphid spray test on potted cowpea plants; conditions: assessed after 24, 72 and 120 hours, in comparison with untreated controls
Method: B.2 Cowpea Aphid (Aphis craccivora)
Potted cowpea plants colonized with approximately 100-150 aphids of various stages were sprayed after the pest population had been recorded. Population reduction was assessed after 24, 72, and 120 hours.

Nephotettix virescens = assay: Rice green leafhopper spray test on rice seedlings; conditions: after 72 hours, in comparison with untreated controls
Method: B.7 Rice Green Leafhopper (Nephotettix virescens)
Rice seedlings were cleaned and washed 24 hours before spraying. The active compounds were formulated in 50:50 acetone:water (vol:vol), and 0.1% vol/vol surfactant (EL 620) was added. Potted rice seedlings were sprayed with 5 ml test solution, air dried, placed in cages and inoculated with 10 adults. Treated rice plants were kept at about 28-29° C. and relative humidity of about 50-60%. Percent mortality was recorded after 72 hours.

[1] = system: Leptinotarsa decemlineata; assay: Colorado potato beetle spray test on eggplant foliage; conditions: foliar, 96 h, 4 days after treatment, in comparison with untreated controls
Method: B.13 Colorado Potato Beetle (Leptinotarsa decemlineata)
as §2
Eggplants were grown 2 plants to a pot and were selected for treatment at the 1st true leaf stage. Test solutions were sprayed onto the foliage by an automated electrostatic plant sprayer equipped with an atomizing spray nozzle. The plants were dried in the sprayer fume hood and then removed from the sprayer. The treated foliage was then cut and removed from the pot and placed in a 5-inch Petri dish lined with moistened filter paper. Five beetle larvae were introduced into each Petri dish and the dish was covered by a Petri dish lid. Petri dishes were maintained in a growth room at 25° C. and 20-40% relative humidity for 4 days, avoiding direct exposure to fluorescent light (24 hour photoperiod) to prevent trapping of heat inside the dishes. Mortality and reduced feeding were assessed 4 days after treatment, compared to untreated control plants.

CCNC(=O)N/N=C/c1ccc(C2=NSC(c3cc(Cl)cc(Cl)c3)(C(F)(F)F)C2)cc1C (stereo not drawn) [Compound 1-5, 1-[(E)-[4-[5-(3,5-dichlorophenyl)-5-(trifluoromethyl)-4H-isothiazol-3-yl]-2-methyl-phenyl]methyleneamino]-3-ethyl-urea]
≥ 75%: mortality at 2500 ppm (Ceratitis capitata) | mortality at 1 ppm (Spodoptera eridania) | mortality at 500 ppm (Dichromothrips corbetti) | mortality at 2500 ppm (Megoura viciae) | mortality at 2500 ppm (Myzus persicae) | mortality at 500 ppm (Plutella xylostella) | mortality at 2500 ppm (Heliothis virescens) | mortality at 2500 ppm (Anthonomus grandis)

Cc1cc(C2=NSC(c3cc(Cl)cc(Cl)c3)(C(F)(F)F)C2)ccc1C(=O)NCC(=O)NCC(F)(F)F (stereo not drawn) [Compound 2-1, 4-[5-(3,5-Dichlorophenyl)-5-trifluoromethyl-4H-isothiazol-3-yl]-2-methyl-N-[2-oxo-2-(2,2,2-trifluoroethylamino)ethyl]benzamide]
≥ 75%: mortality at 2500 ppm (Ceratitis capitata) | mortality at 1 ppm (Spodoptera eridania) | mortality at 500 ppm (Dichromothrips corbetti) | mortality at 2500 ppm (Megoura viciae) | mortality at 2500 ppm (Myzus persicae) | mortality at 500 ppm (Tetranychus kanzawai) | mortality at 500 ppm (Plutella xylostella) | mortality at 500 ppm (Aphis craccivora) | mortality at 2500 ppm (Heliothis virescens) | mortality at 500 ppm (Nephotettix virescens) | mortality at 2500 ppm (Anthonomus grandis) | mortality at 1 ppm [1]

CCSCC(=O)N(CC)Cc1ccc(C2=NSC(c3cc(Cl)cc(Cl)c3)(C(F)(F)F)C2)cc1C (stereo not drawn) [Compound 3-3, N-[[4-[5-(3,5-Dichlorophenyl)-5-(trifluoromethyl)-4H-isothiazol-3-yl]-2-methyl-phenyl]methyl]-N-ethyl-2-ethylsulfanyl-acetamide]
≥ 75%: mortality at 2500 ppm (Ceratitis capitata) | mortality at 1 ppm (Spodoptera eridania) | mortality at 500 ppm (Dichromothrips corbetti) | mortality at 2500 ppm (Myzus persicae) | mortality at 500 ppm (Plutella xylostella) | mortality at 2500 ppm (Heliothis virescens) | mortality at 500 ppm (Nephotettix virescens) | mortality at 2500 ppm (Anthonomus grandis)

Cc1cc(C2=NSC(c3cc(Cl)cc(Cl)c3)(C(F)(F)F)C2F)ccc1C(=O)NCC(=O)NCC(F)(F)F (stereo not drawn) [Compound 5-1, 4-[5-(3,5-dichlorophenyl)-4-fluoro-5-(trifluoromethyl)-4H-isothiazol-3-yl]-2-methyl-N-[2-oxo-2-(2,2,2-trifluoroethylamino)ethyl]benzamide]
≥ 75%: mortality at 2500 ppm (Ceratitis capitata) | mortality at 500 ppm (Dichromothrips corbetti) | mortality at 2500 ppm (Megoura viciae) | mortality at 2500 ppm (Myzus persicae) | mortality at 500 ppm (Tetranychus kanzawai) | mortality at 500 ppm (Plutella xylostella) | mortality at 2500 ppm (Heliothis virescens) | mortality at 2500 ppm (Anthonomus grandis)
